# Measured values taken from PubChem BioAssay (NCI).
# Where “and” joins values, the source holds several entries; their conditions need not be identical. Identical values can stand only once.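 These data come from cells grown in 96-well plates and exposed to compound for 48 hours at five concentrations. At the GI50, growth is halved. TGI: total growth inhibition.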
# Columns and labels:
# Experiment in all cases: DTP human tumour cell line panel, 48 h
# [1] = test system: CAKI-1 renal
# [2] = test system: SK-MEL-2 melanoma
# [3] = test system: SR leukemia
# [4] = test system: U251 CNS
# [5] = test system: UACC-257 melanoma
# [6] = test system: UO-31 renal
# [7] = test system: MALME-3M melanoma
# [8] = test system: SF-268 CNS
# [9] = test system: DU-145 prostate
# [10] = test system: NCI/ADR-RES ovarian
Compound,TGI [1],TGI [2],TGI [3] [µM],TGI [4] [µM],TGI [5] [µM],TGI [6] [µM],TGI [7],TGI [8] [µM],GI50 [1] [µM],GI50 [9] [µM],TGI [9] [µM],GI50 [7] [µM],GI50 [10] [µM],TGI [10] [µM],GI50 [8] [µM],GI50 [2] [µM],GI50 [4] [µM],GI50 [5] [µM],GI50 [6] [µM]
CC(C)(C)C(=O)Nc1cccc2oc(-c3ccccc3)cc12,> 100 µM,> 100 µM,> 100,> 100,> 100,> 100,–,–,–,–,–,–,–,–,–,–,–,–,–
CCOc1ccc(/C=C/c2cc(OC)c(OC)c(OC)c2)cc1,24.1 µM,20.7 µM,> 100,13.2,> 100,> 100,28.8 µM,> 25.8,–,–,–,–,–,–,–,–,–,–,–
NS(=O)(=O)c1ccc(NC(=O)Cc2nc3ccccc3s2)cc1,30.5 µM,31.9 µM,71,28.5,29.6,62.6,30.3 µM,30.7,–,–,–,–,–,–,–,–,–,–,–
CC1=NN(C(=O)Nc2ccc(Cl)cc2)C(=O)C2CCC(=O)N12 (centres undefined),> 100 µM,> 100 µM,> 100,> 100,> 100,> 100,–,> 100,–,–,–,–,–,–,–,–,–,–,–
Cc1ccc(NC(=O)CC/C(CC(=O)C(C)(C)C)=N\NC(=O)C[n+]2ccccc2)cc1C,> 100 µM,> 100 µM,> 100,> 100,> 100,> 100,> 100 µM,> 100,–,–,–,–,–,–,–,–,–,–,–
CCOC(=O)C(CCC(N)=O)(CCC(=O)OC)C(=O)OCC,> 100 µM,–,> 100,> 100,> 100,> 100,> 100 µM,> 100,–,–,–,–,–,–,–,–,–,–,–
OCC[N+]12CCCN1CCC2,> 100 µM,> 100 µM,> 100,> 100,> 100,> 100,> 100 µM,> 100,–,–,–,–,–,–,–,–,–,–,–
Cc1ccc(/C=C(\NC(=O)c2ccccc2)c2nc3ccccc3[nH]2)cc1,–,80.1 µM,> 100,> 100,> 100,> 100,> 100 µM,> 100,–,–,–,–,–,–,–,–,–,–,–
O=C(COc1cccc(/C=C2\CSc3ccc(Cl)cc3C2=O)c1)c1ccc(Cl)cc1,34.1 µM,24.5 µM,–,5.44,30.8,27.2,23.9 µM,30,12.2,13.6,27.9,10.6,11.3,31.4,13.6,11.2,2.32,13.4,12
CSc1nc2nn(Cc3ccccc3)cc2c(=O)[nH]1,> 100 µM,> 100 µM,> 100,> 100,> 100,> 100,> 100 µM,> 100,–,–,–,–,–,–,–,–,–,–,–
CCC1C(C(=O)Nc2ccccc2C)=C(C)NC(C)=C1c1ccccc1C (centres undefined),> 100 µM,> 100 µM,> 76.7,> 100,> 100,> 100,> 100 µM,> 61.1,–,–,–,–,–,–,–,–,–,–,–
CCn1c2ccccc2c(=O)c2c(OC)ccc(OC)c21,> 100 µM,> 100 µM,> 100,> 100,> 100,> 89.9,> 100 µM,> 100,–,–,–,–,–,–,–,–,–,–,–
O=C(N/C(=C\c1cccc([N+](=O)[O-])c1)c1nc2ccccc2[nH]1)c1ccccc1,> 100 µM,> 100 µM,> 100,> 100,> 100,69.4,> 100 µM,> 100,–,–,–,–,–,–,–,–,–,–,–
CCN(CC)CC(C)C(=O)/C=C/c1ccc(C)cc1 (centres undefined),2.49 µM,–,8.19,3.43,4.1,26.4,7.08 µM,4.51,–,–,–,–,–,–,–,–,–,–,–
O=C(CCc1ccccc1)NS(=O)(=O)c1ccccc1,> 100 µM,> 100 µM,> 100,> 100,> 100,> 100,> 100 µM,> 100,–,–,–,–,–,–,–,–,–,–,–
c1ccncc1,> 100 µM,> 100 µM,> 100,> 100,> 100,> 100,> 100 µM,> 100,–,–,–,–,–,–,–,–,–,–,–
O=[N+]([O-])c1ccc(C(Cl)C(Cl)c2ccc(C(Cl)C(Cl)c3ccc([N+](=O)[O-])cc3[N+](=O)[O-])cc2)c([N+](=O)[O-])c1 (centres undefined),5.7 µM and 1.93 µM,3.27 µM and 0.472 µM,> 62,3.03,5.77,–,2.33 µM and 0.57 µM,–,0.35,–,–,0.243,–,–,0.253,0.231,–,–,0.244
COc1ccc(C(=NN=C(N)N)c2ccc(OC)cc2)cc1,21 µM,12.6 µM,–,14.1,25.1,15.6,11.6 µM,12,5.75,2.6,10.8,2.85,21.1,75.6,2.34,2.51,3.72,7.24,3.46
CCOC(=O)C1=C(C)NC(=O)NC1CN1C(=O)c2ccccc2C1=O (centres undefined),> 100 µM,> 100 µM,–,> 100,> 100,> 100,> 100 µM,> 100,> 100,> 100,> 100,> 100,> 100,> 100,> 100,> 100,> 100,> 100,> 100
